Measured values taken from patent publication US9624213B2 (Plexxikon Inc., priority 2011, dated 2017).

Assays:
B-Raf V600E = B-Raf V600E (Homo sapiens (Human), UniProt P15056, V600E); assay: B-Raf V600E kinase biochemical activity (AlphaScreen, biotin-MEK1 substrate); conditions: 100 μM ATP
Procedure: Assays for biochemical and cell based activity are known in the art, for example, as described in PCT publication WO 2007/002433, the disclosure of which is hereby incorporated by reference as it relates to such assays. For example, the biochemical activity IC50 values are determined with respect to inhibition of B-Raf V600E kinase activity or p-Erk kinase activity, where inhibition of phosphorylation of a peptide substrate is measured as a function of compound concentration. Compounds to be tested are diluted in dimethyl sulfoxide to a concentration of 0.1 mM. These are serially diluted 15 μL into 30 μL of dimethyl sulfoxide seven times in 96 well plates for a total of 8 dilution points, and for each dilution point 1 μL is added to a well of an assay plate. Plates are prepared such that each well in a 384 well plate contains 1 μL of compound in 10 μL volume with 0.1 ng Raf enzyme (i.e. any of B-Raf, c-Raf-1 or B-Raf V600E, Upstate Biotechnology or prepared by methods known to one of skill in the art), 50 mM HEPES, pH 7.0, 50 mM NaCl, 2 mM MgCl2, 1 mM MnCl2, 0.01% Tween-20, 1 mM DTT, and 100 nM biotin-MEK1 as substrate. The reaction is started with addition of 10 μL of 200 μM ATP (i.e. final 100 μM ATP). After incubation of the kinase reaction for 45 minutes at room temperature, 5 μL/well of Stop Solution is added (25 mM Hepes pH 7.5, 100 mM EDTA, 0.01% BSA with donor beads (Streptavidin coated beads, Perkin Elmer), acceptor beads (Protein A coated, Perkin Elmer), and anti phosphor MEK1/2 antibody (CellSignal), each at final concentration 10 μg/mL). The plates are incubated for 3 hours at room temperature and read on Envision reader (Perkin Elmer). Phosphorylation of Mek1 results in binding of the anti-phosphor-MEK1/2antibody and association of the donor and acceptor beads such that signal correlates with kinase activity. The signal vs. compound concentration is used to determine the IC50.

A375 = assay: A375_P-ERK / A375 cell activity; assay type: cell-based; conditions: Homo sapiens, A-375; A375 cells (A375_P-ERK)
Procedure: (§1) Compounds are assessed in a variety of cell based assays. For example human cell lines with B-Raf V600E mutation (A375 melanoma, SKMEL3 melanoma, and COLO205 colon adenocarcinoma), as well as tumorigenic cell lines with wild-type B-RAF (SW620 colon adenocarcinoma) or with Ras mutations (SKMEL2 melanoma and IPC298 melanoma). Similar assays may be used to assess additional tumorigenic cell lines with Ras mutations, including, but not limited to, M202, M207, M243, M244, M296, S117, HCT116, HCT15, DLD1, MiaPaCa, A549, NCI-H23, NCI-H460, HOP62, MDA-MB231, Hs-578T, HL60, MOLT-4, and CCRF-CEM.
(§2) On day 1, cells are counted, then centrifuged in a conical tube for 5 minutes at 1000 rpm. The supernatant is removed and cells are re-suspended as follows: • SW620 (ATCC catalog #CCL-27): resuspend in Leibovitz's L-15 medium, 2 mM L-glutamine, 10% fetal bovine serum to 6×10^4 cells/mL. • A375 (ATCC catalog #CRL-1619): resuspend in Dulbecco's modified Eagle's medium, 4 mM L-glutamine, 4.5 g/L D-glucose, 10% fetal bovine serum to 6×10^4 cells/mL. • COLO205 (ATCC catalog #CCL-222): resuspend in RPMI 1640, 2 mM L-glutamine, 1.5 g/L sodium bicarbonate, 4.5 g/L D-glucose, 10 mM HEPES, 1.0 mM sodium pyruvate, 10% fetal bovine serum to 6×10^4 cells/mL. • SKMEL2 (ATCC catalog #HTB-68): resuspend in Minimum Eagle essential medium, 2 mM L-glutamine, 1.5 g/L sodium bicarbonate, 0.1 mM non-essential amino acids, 1.0 mM sodium pyruvate, 10% fetal bovine serum to 6×10^4 cells/mL. • SKMEL3 (ATCC catalog #HTB-69): resuspend in McCoy's 5A medium, 1.5 mM L-glutamine, 15% fetal bovine serum to 6×10^4 cells/mL. • IPC298 (DSMZ catalog #ACC 251): resuspend in RPMI 1640, 2 mM L-glutamine, 10% fetal bovine serum to 6×10^4 cells/mL.
(§3) The cells are plated, 50 μL in each well of a 96-well dish (Corning 3610) and incubated at 37° C. in 5% CO2 overnight, cells plated to a final concentration of cells as follows: • SW620: 5,000 cells per well. • A375: 2,000 cells per well. • COLO205: 2,000 cells per well. • SKMEL2: 2,000 cells per well. • SKMEL3: 3,000 cells per well. • IPC298: 2,000 cells per well.
(§4) On day 2, compound at a maximum concentration of 5 mM is serially diluted 1:3 (e.g. 10 μL with 30 μL dimethyl sulfoxide) for a total of 8 point titration with DMSO as a control. A 1 μL aliquot of each dilution point and control is added to 249 μL growth media and 50 μL is added to a well containing cells, providing 10 μM compound at the maximum concentration point. The cells are incubated for 3 days at 37° C. in 5% CO2.
(§5) On day 5, ATPlite 1 step Luminescence Assay System (Perkin Elmer #6016739) is brought to room temperature along with the cell cultures. ATPlite is added 25 μL to each well, shake for 2 minutes, and the cells are incubated at room temperature for 10 minutes, then luminescence is read on Satire reader. The measured luminescence correlates directly with cell number, such that the reading as a function of compound concentration is used to determine the IC50 value.

COLO205 = COLO205 cell growth inhibitory activity (ATPlite); assay type: cell-based; conditions: Homo sapiens, COLO 205, 72 h; COLO205 cells, growth inhibition, 3 days
Procedure: as §1, §2, §3, §4, §5

Chain of B-Raf V600E (P15056 whole entry V600E): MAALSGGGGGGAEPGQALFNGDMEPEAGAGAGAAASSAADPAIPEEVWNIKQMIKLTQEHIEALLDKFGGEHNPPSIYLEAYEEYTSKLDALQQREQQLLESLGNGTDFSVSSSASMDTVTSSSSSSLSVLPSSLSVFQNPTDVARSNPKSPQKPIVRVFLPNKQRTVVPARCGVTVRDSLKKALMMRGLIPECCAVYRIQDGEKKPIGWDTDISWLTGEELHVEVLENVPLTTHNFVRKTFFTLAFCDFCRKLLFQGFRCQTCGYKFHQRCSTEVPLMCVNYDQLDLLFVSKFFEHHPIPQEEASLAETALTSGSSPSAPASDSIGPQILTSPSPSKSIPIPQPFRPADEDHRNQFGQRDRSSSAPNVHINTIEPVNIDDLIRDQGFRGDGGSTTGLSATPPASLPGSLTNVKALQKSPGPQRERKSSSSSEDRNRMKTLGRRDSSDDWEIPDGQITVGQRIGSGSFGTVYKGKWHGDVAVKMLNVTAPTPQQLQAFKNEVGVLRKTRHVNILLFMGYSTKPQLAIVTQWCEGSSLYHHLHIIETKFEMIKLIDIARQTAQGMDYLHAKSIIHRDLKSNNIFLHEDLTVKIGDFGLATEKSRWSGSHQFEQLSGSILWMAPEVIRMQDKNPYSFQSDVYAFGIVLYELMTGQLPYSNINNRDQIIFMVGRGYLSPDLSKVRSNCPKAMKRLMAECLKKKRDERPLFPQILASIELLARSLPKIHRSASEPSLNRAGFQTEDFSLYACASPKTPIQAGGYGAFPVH

Compound | IC50 (B-Raf V600E) [µM] | IC50 (A375) [µM] | IC50 (COLO205) [µM]
Cn1cc(-c2cnc3[nH]cc(C(=O)c4cccc(NS(=O)(=O)CC5CC5)c4F)c3c2)cn1 [Compound P-0042, 1-cyclopropyl-N-[2-fluoro-3-[5-(1-methylpyrazol-4-yl)-1H-pyrrolo[2,3-b]pyridine-3-carbonyl]phenyl]methanesulfonamide] | < 0.1 | – | –
CCN(C)S(=O)(=O)Nc1ccc(F)c(C(=O)c2c[nH]c3ncc(-c4ccc(C5(C#N)CC5)cc4)cc23)c1F [Compound P-0239, 5-[4-(1-cyanocyclopropyl)phenyl]-3-[3-[[ethyl(methyl)sulfamoyl]amino]-2,6-difluoro-benzoyl]-1H-pyrrolo[2,3-b]pyridine] | < 0.1 | – | –
N#CC1(c2ccc(-c3cnc4[nH]cc(C(=O)c5c(F)ccc(NS(=O)(=O)N6CCCC6)c5F)c4c3)cc2)CC1 [Compound P-0248, N-[3-[5-[4-(1-cyanocyclopropyl)phenyl]-1H-pyrrolo[2,3-b]pyridine-3-carbonyl]-2,4-difluoro-phenyl]pyrrolidine-1-sulfonamide] | < 0.1 | – | –
O=C(c1c(F)ccc(NS(=O)(=O)N2CCCC2)c1F)c1c[nH]c2ncc(-c3ccnc(OC4CCC4)c3)cc12 [Compound P-0286, N-[3-[5-[2-(cyclobutoxy)-4-pyridyl]-1H-pyrrolo[2,3-b]pyridine-3-carbonyl]-2,4-difluoro-phenyl]pyrrolidine-1-sulfonamide] | – | > 1 | < 1
CCN(C)S(=O)(=O)Nc1ccc(F)c(C(=O)c2c[nH]c3ncc(-c4cccc(N(C)C)c4)cc23)c1F [Compound P-0302, 5-[3-(dimethylamino)phenyl]-3-[3-[[ethyl(methyl)sulfamoyl]amino]-2,6-difluoro-benzoyl]-1H-pyrrolo[2,3-b]pyridine] | – | < 1 | < 1
CCN(C)S(=O)(=O)Nc1ccc(F)c(C(=O)c2c[nH]c3ncc(-c4ccc(C(=O)NC5CC5)nc4)cc23)c1F [Compound P-0312, N-cyclopropyl-5-[3-[3-[[ethyl(methyl)sulfamoyl]amino]-2,6-difluoro-benzoyl]-1H-pyrrolo[2,3-b]pyridin-5-yl]pyridine-2-carboxamide] | – | < 1 | < 1
CN1CCN(c2cc(-c3cnc4[nH]cc(C(=O)c5c(F)ccc(NS(=O)(=O)N6CCCC6)c5F)c4c3)ncn2)CC1 [Compound P-0319, N-[2,4-difluoro-3-[5-[6-(4-methylpiperazin-1-yl)pyrimidin-4-yl]-1H-pyrrolo[2,3-b]pyridine-3-carbonyl]phenyl]pyrrolidine-1-sulfonamide] | – | < 1 | < 1

Results, then the compound that gave them:

IC50 (B-Raf V600E) [µM] | IC50 (A375) [µM] | IC50 (COLO205) [µM] | Compound
< 0.1 | – | – | CN(C)S(=O)(=O)Nc1ccc(F)c(C(=O)c2c[nH]c3ncc(-c4ccc(C5(C#N)CC5)cc4)cc23)c1F [Compound P-0237, 5-[4-(1-cyanocyclopropyl)phenyl]-3-[3-(dimethylsulfamoylamino)-2,6-difluoro-benzoyl]-1H-pyrrolo[2,3-b]pyridine]
– | < 1 | < 1 | COc1ncc(-c2cnc3[nH]cc(C(=O)c4c(F)ccc(NS(=O)(=O)N5CCCC5)c4F)c3c2)s1 [Compound P-0270, N-[2,4-difluoro-3-[5-(2-methoxythiazol-5-yl)-1H-pyrrolo[2,3-b]pyridine-3-carbonyl]phenyl]pyrrolidine-1-sulfonamide]
– | < 1 | < 1 | O=C(c1c(F)ccc(NS(=O)(=O)N2CCC(F)(F)C2)c1F)c1c[nH]c2ncc(-c3cnc(C4CC4)nc3)cc12 [Compound P-0288, N-[3-[5-(2-cyclopropylpyrimidin-5-yl)-1H-pyrrolo[2,3-b]pyridine-3-carbonyl]-2,4-difluoro-phenyl]-3,3-difluoro-pyrrolidine-1-sulfonamide]
– | > 1 | > 1 | O=C(c1c(F)ccc(NS(=O)(=O)N2CCCC2)c1F)c1c[nH]c2ncc(-c3cc(C(F)(F)F)ncn3)cc12 [Compound P-0294, N-[2,4-difluoro-3-[5-[6-(trifluoromethyl)pyrimidin-4-yl]-1H-pyrrolo[2,3-b]pyridine-3-carbonyl]phenyl]pyrrolidine-1-sulfonamide]
– | < 1 | > 1 | CCN(C)S(=O)(=O)Nc1ccc(F)c(C(=O)c2c[nH]c3ncc(-c4ccc(C#N)cc4)cc23)c1F [Compound P-0300, 5-(4-cyanophenyl)-3-[3-[[ethyl(methyl)sulfamoyl]amino]-2,6-difluoro-benzoyl]-1H-pyrrolo[2,3-b]pyridine]
